What all share (test): NCI anticancer screen, dose series, 48 h
The test system of test [1] is 786-0.
The test system of test [2] is M14.
Test [3] has as its system SN12C.
The test system of test [4] is K562.
For test [5], the system named is HOP-92.
Test [6] has as its system NCI-H23.
Test [7] deals with CCRF-CEM.
Test [8] relates to MDA-MB-231.
Test [9] concerns COLO 205.
The subject of test [10] is UACC-257.
The test system of test [11] is MDA-MB-435.
Test [12] concerns SF-268.
The test system of test [13] is OVCAR-8.
Test [14] relates to SF-295.
For test [15], the system named is Hs-578T.
Test [16] relates to OVCAR-5.
For test [17], the system named is KM12.
In test [18] the test system is HCT-15.
Test [19] deals with UACC-62.
Test [20] deals with IGROV-1.

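Method: 48-hour compound exposure of cells in 96-well plates, five concentrations, linear interpolation of endpoints. The concentration for 50% growth inhibition is given as GI50.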 Activity calls are given as the source filed them. Rule as the data show it: active = GI50 up to about 1.1 µM and inactive = higher. Some results are limits rather than exact numbers.

As for `Cc1ccc2nc(CC(=O)c3ccc4ccccc4c3)c(O)nc2c1`, the GI50 in [1], in test [2], in test [3], in test [4], in test [5] and in [6] was > 100 µM (inactive) throughout. The GI50 in test [7], in [8], in test [9], in test [10], in test [11] and in test [12] was > 100 µM (inactive) each time. Also, the GI50 was > 100 µM (inactive) in [13]; > 100 µM (inactive) in test [14]; > 100 µM (inactive) in test [15]; > 100 µM (inactive) in test [16]; > 100 µM (inactive) in test [17]; greater than 100 µM in test [18]. The GI50 in test [19] and in test [20] was > 100 µM (inactive) in each case.

Take `Cc1cc(CNC(=O)OCc2ccccc2)c(C)c2c1Oc1ccccc1O2`: the GI50 in test [1] was 15 µM (inactive); in test [2], 69.7 µM (inactive); in test [3] it was 24.3 µM (inactive); in test [4], > 100 µM (inactive); in test [5], 1.26 µM (inactive); in [6], 24.3 µM (inactive). The GI50 in [7] is > 100 µM (inactive); in test [8], 6.67 µM (inactive); in [9] it was 50.1 µM (inactive); in test [10] it was > 100 µM (inactive); in test [11] it was > 100 µM (inactive); in test [12], 20.7 µM (inactive). Moreover, the GI50 was 17.1 µM (inactive) in test [13]; 31.8 µM (inactive) in [14]; 19.7 µM (inactive) in test [15]; 43.4 µM (inactive) in [16]; 43.6 µM (inactive) in test [17]; 97.5 µM in test [18]. For the same compound, the GI50 was 26.5 µM (inactive) in test [19] and 24.2 µM (inactive) in [20].

Turning to `COC(=O)c1c(C)cccc1C1CN=NC12Cc1ccc(C)c(C)c1C2=O` (configuration not stated), the GI50 in [1] is 51.3 µM (inactive); in test [2], 30.5 µM (inactive); in test [3] it was 50 µM (inactive); in test [4], 18.2 µM (inactive); in test [5], 28.6 µM (inactive); in [6], 46.5 µM (inactive). Moreover, the GI50 was 24.3 µM (inactive) in test [7]; 39.4 µM (inactive) in [8]; 26.2 µM (inactive) in [10]; 31.4 µM (inactive) in test [11]; 49.4 µM (inactive) in test [12]; 27.1 µM (inactive) in test [13]. The GI50 in test [14] was 42.7 µM (inactive); in [15], 37.7 µM (inactive); in [16], > 100 µM (inactive); in test [17] it was 34.3 µM (inactive); in test [18] it was 23.2 µM; in test [19] it was 15.3 µM (inactive). The GI50 in test [20] is 46.2 µM (inactive).

Take `COC(=O)/C=C/c1ccc2c(c1)[C@H](C(=O)OC)[C@@H](c1ccc(O)cc1)O2`: the GI50 in test [1] is 30 µM (inactive); in test [2], 10.5 µM (inactive); in [3], 43.5 µM (inactive); in [4] it was 4.06 µM (inactive); in test [5], 59 µM (inactive); in test [6] it was 46.8 µM (inactive). For the same compound, the GI50 is 9.06 µM (inactive) in [7]; 14.8 µM (inactive) in test [8]; 25.2 µM (inactive) in test [9]; 32.5 µM (inactive) in [10]; 3.32 µM (inactive) in test [11]; 30.3 µM (inactive) in test [12]. The GI50 in test [13] was 37 µM (inactive); in [14], 31.4 µM (inactive); in test [15] it was 31.2 µM (inactive); in test [16], > 100 µM (inactive); in [17] it was 19 µM (inactive); in test [18], 5.02 µM. Moreover, the figures for the GI50 in test [19] and in test [20] were 20 µM (inactive) and 27.4 µM (inactive), respectively.

`Cc1nc2ccc([N+](=O)[O-])cc2c(=O)n1C(=S)Nc1cccc(Cl)c1`: the GI50 in test [1] was 24.7 µM (inactive); in [2], 21.9 µM (inactive); in [3], 20 µM (inactive); in test [4], 20.7 µM (inactive); in test [5], 3.5 µM (inactive); in [6] it was 13.8 µM (inactive). The GI50 in test [7] is 12.9 µM (inactive); in test [8] it was 15.5 µM (inactive); in [9], 14 µM (inactive); in [10], 17.3 µM (inactive); in test [11], 17.7 µM (inactive); in test [12], 16.8 µM (inactive). Also, the GI50 in [14] is 18.3 µM (inactive); in test [15], 21.5 µM (inactive); in test [16] it was 28.2 µM (inactive); in test [17], 12.9 µM (inactive); in [18], 12.9 µM; in [19], 12.5 µM (inactive).

In the case of `CSc1nc(NC2OC(COC(C)=O)C(OC(C)=O)C(OC(C)=O)C2OC(C)=O)c(/N=C\C=N/c2c(NC3OC(COC(C)=O)C(OC(C)=O)C(OC(C)=O)C3OC(C)=O)nc(SC)n(C)c2=O)c(=O)n1C` (configuration not stated), the GI50 was 34 µM (inactive) in test [1]; > 4.65 µM (inactive) in test [2]; > 92.9 µM (inactive) in test [3]; > 100 µM (inactive) in test [4]; 25.9 µM (inactive) in test [5]; > 70 µM (inactive) in [6]. The GI50 was > 100 µM (inactive) in [7]; 49.3 µM (inactive) in [8]; > 100 µM (inactive) in [9]; > 100 µM (inactive) in test [10]; > 100 µM (inactive) in [11]; 62.1 µM (inactive) in test [12]. In addition, the GI50 in test [13] is 73.8 µM (inactive); in test [14], 33.3 µM (inactive); in test [15], 26.1 µM (inactive); in test [16], > 100 µM (inactive); in test [17], > 100 µM (inactive); in test [18], greater than 100 µM. Also, the GI50 in test [19] is > 94.8 µM (inactive); in test [20], 65.8 µM (inactive).

Take `COc1cc(CSc2ccc(O)cc2)cc(O)c1O`: the GI50 in [1] was 36.2 µM (inactive); in test [2], 20.5 µM (inactive); in [3], 25.2 µM (inactive); in test [4] it was 31.6 µM (inactive); in test [5], 22.7 µM (inactive); in [6], 41.8 µM (inactive). The GI50 in [7] was 8.36 µM (inactive); in [8], 25.4 µM (inactive); in [9], 23.3 µM (inactive); in [10], 34 µM (inactive); in test [11], 17.2 µM (inactive); in test [12], 28.8 µM (inactive). The GI50 is 26.2 µM (inactive) in [13]; 23.2 µM (inactive) in test [14]; 42.1 µM (inactive) in [15]; 23.4 µM (inactive) in [16]; 25.9 µM (inactive) in [17]; 18.7 µM in test [18]. Moreover, the GI50 in test [19] was 22.8 µM (inactive); in [20], 35.3 µM (inactive).

For the compound `Nc1nc(Cl)c2nnn(CC3CCC(CO)C3)c2n1` (configuration not stated), the GI50 in test [1], in test [2], in test [3], in test [4], in test [5] and in [7] was > 100 µM (inactive) each time. For the same compound, the GI50 in test [8], in [9], in test [10], in [11], in test [12] and in [14] was > 100 µM (inactive) throughout. Besides, the GI50 was > 100 µM (inactive) in test [15]; > 100 µM (inactive) in test [16]; > 100 µM (inactive) in [17]; greater than 100 µM in test [18]; > 100 µM (inactive) in test [19].

With `O=C(NCCCCCCNC(=O)c1cc(-c2ccccc2)nc2ccccc12)c1cc(-c2ccccc2)nc2ccccc12`, the GI50 in test [1] was 31.6 µM (inactive); in test [2], > 100 µM (inactive); in test [3] it was > 100 µM (inactive); in test [4], > 100 µM (inactive); in test [5] it was > 100 µM (inactive); in test [6] it was > 100 µM (inactive). Also, the GI50 in test [7], in test [8], in test [9], in test [10], in test [11] and in [12] was > 100 µM (inactive) in each case. For the same compound, the GI50 was > 100 µM (inactive) in test [13]; 84.7 µM (inactive) in [14]; 40.6 µM (inactive) in test [15]; > 100 µM (inactive) in [16]; greater than 100 µM in test [18]; > 100 µM (inactive) in test [19]. Besides, the GI50 in [20] was 34.8 µM (inactive).

Consider `Cc1cccc(-c2cc(O)c3cccnc3n2)c1`, for which the GI50 in [1] was 0.569 µM (active); in [2], 0.555 µM (active); in test [3] it was 2.75 µM (inactive); in [4], 0.0993 µM (active); in test [5] it was 88.3 µM (inactive); in [6] it was 2.79 µM (inactive). In addition, the GI50 is 0.935 µM (active) in test [7]; 2.09 µM (inactive) in test [8]; 0.236 µM (active) in test [9]; 0.0298 µM (active) in test [11]; 59 µM (inactive) in test [12]; 1.35 µM (inactive) in test [13]. In addition, the GI50 in [14] was 1.36 µM (inactive); in test [15], 0.444 µM (active); in test [16], 2.96 µM (inactive); in [17], 0.173 µM (active); in test [18], 0.299 µM; in test [19], 0.292 µM (active). The GI50 in test [20] is 0.914 µM (active).

The record behind these values is ChEMBL document CHEMBL1201862, “PubChem BioAssay data set” (2004).
